Drawing on patent US11306078B2, “Piperidine CXCR7 receptor modulators” (IDORSIA PHARMACEUTICALS LTD., priority 2016, dated 2022), this text covers IC50 for 28 molecules.

The target in the experiment is human chemokine receptor CXCR7 (Homo sapiens (Human), UniProt P25106). Description: Tango CXCR7-bla U2OS beta-arrestin recruitment assay (beta-lactamase reporter, FRET), antagonism of CXCL12/SDF1-α.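 Note: compounds preincubated 15 min before CXCL12 addition, then 22 h at 37 °C, FRET emission ratio read with CCF4-AM substrate after 2 h.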 The settings on record: antagonistic effect on CXCR7; Tango CXCR7-bla U2OS cells, CXCL12/SDF1-α at its EC80. It is filed as cell-based. In general terms: Arrestin recruitment assays detect the binding of arrestin to an activated receptor.
Sequence of human chemokine receptor CXCR7 (P25106 whole entry): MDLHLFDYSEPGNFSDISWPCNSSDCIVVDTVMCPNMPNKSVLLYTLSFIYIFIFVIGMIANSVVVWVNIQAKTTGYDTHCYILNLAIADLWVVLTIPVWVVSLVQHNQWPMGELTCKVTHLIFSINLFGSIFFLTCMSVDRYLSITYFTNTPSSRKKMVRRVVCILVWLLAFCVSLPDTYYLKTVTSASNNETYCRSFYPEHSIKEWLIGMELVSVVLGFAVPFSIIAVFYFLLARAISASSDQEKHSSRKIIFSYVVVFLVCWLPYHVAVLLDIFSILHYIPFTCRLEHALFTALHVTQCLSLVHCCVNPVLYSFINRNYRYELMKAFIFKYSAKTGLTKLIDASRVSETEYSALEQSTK
Turning to `O=C(N[C@@H]1CCN(CC2CC2)C[C@H]1C(=O)NC1(c2ccccn2)CC1)c1cc(-c2ccc(F)cc2)on1` (racemic) [Example 3.014, rac-(3R*,4R*)-1-Cyclopropylmethyl-4-{[5-(4-fluoro-phenyl)-isoxazole-3-carbonyl]-amino}-piperidine-3-carboxylic acid (1-pyridin-2-yl-cyclopropyl)-amide], it took 158 nM to reach half-maximal inhibition (IC50). As to `Cn1cc(C(C)(C)NC(=O)[C@H]2CN(C3CCCC3)CC[C@@H]2NC(=O)c2cc(-c3ccc(F)cc3F)on2)cn1` [Example 4.034], the half-maximal inhibitory concentration (IC50) (as a rule, the concentration that inhibits the measured activity by half) came out at 255 nM. In the case of `C[C@@H](NC(=O)[C@@H]1CN(CC2CC2)CC[C@H]1NC(=O)c1cc(-c2ccc(F)cc2F)no1)C1CCC1` (relative stereo) [Example 1.161, (3R*,4R*)-1-Cyclopropylmethyl-4-{[3-(2,4-difluoro-phenyl)-isoxazole-5-carbonyl]-amino}-piperidine-3-carboxylic acid ((R)-1-cyclobutyl-ethyl)-amide], the IC50 was 105 nM. The value for `O=C(N[C@H]1CCN(C2CCCC2)C[C@@H]1C(=O)NC1(c2ccccn2)CC1)c1cc(-c2c(F)cc(F)cc2F)on1` (single isomer, unassigned) [Example 1.170a, (3S,4S)-1-Cyclopentyl-4-{[5-(2,4,6-trifluoro-phenyl)-isoxazole-3-carbonyl]-amino}-piperidine-3-carboxylic acid (1-pyridin-2-yl-cyclopropyl)-amide or (3R,4R)-1-Cyclopentyl-4-{[5-(2,4,6-trifluoro-phenyl)-isoxazole-3-carbonyl]-amino}-piperidine-3-carboxylic acid (1-pyridin-2-yl-cyclopropyl)-amide] was 33 nM. On to `O=C(N[C@H]1CCN(CC2CC2)C[C@@H]1C(=O)NC1(c2ncccc2F)CC1)c1cc(-c2ccc(F)cc2F)on1` [Example 4.054], for which the IC50 is 1 nM.

As to `C[C@@H](NC(=O)[C@]1(C)CN(C2CCCCC2)CC[C@H]1NC(=O)c1cc(-c2ccc(F)cc2F)on1)c1ccccn1` (relative stereo) [Example 5.001, (3R*,4R*)-1-Cyclohexyl-4-{[5-(2,4-difluoro-phenyl)-isoxazole-3-carbonyl]-amino}-3-methyl-piperidine-3-carboxylic Acid ((R)-1-pyridin-2-yl-ethyl)-amide], the IC50 stood at 368 nM.

As for `O=C(N[C@@H]1CCN(CC2CC2)C[C@H]1C(=O)NC1(c2ccccn2)CC1)c1nnc(-c2ccc(F)cc2F)o1` (racemic) [Example 3.016, rac-(3R*,4R*)-1-Cyclopropylmethyl-4-{[5-(2,4-difluoro-phenyl)-[1,3,4]oxadiazole-2-carbonyl]-amino}-piperidine-3-carboxylic acid (1-pyridin-2-yl-cyclopropyl)-amide], 105 nM corresponded to half-maximal inhibition (IC50). `O=C(N[C@H]1CCN(CC2CC2)C[C@@H]1C(=O)NCCc1ccccc1Cl)c1cc(-c2ccc(F)cc2F)on1` [Example 4.065] displayed a concentration for half-maximal inhibition (IC50) of 14 nM. `C[C@@H](NC(=O)[C@H]1CN(C2CCCCC2)CC[C@@H]1NC(=O)c1cn(-c2ccc(F)cc2F)nn1)c1ccccn1` (single isomer, unassigned) [Example 1.117a, (3S,4S)-1-Cyclohexyl-4-{[1-(2,4-difluoro-phenyl)-1H-[1,2,3]triazole-4-carbonyl]-amino}-piperidine-3-carboxylic acid ((R)-1-pyridin-2-yl-ethyl)-amide or (3R,4R)-1-Cyclohexyl-4-{[1-(2,4-difluoro-phenyl)-1H-[1,2,3]triazole-4-carbonyl]-amino}-piperidine-3-carboxylic acid ((R)-1-pyridin-2-yl-ethyl)-amide]: the IC50 is 39 nM. In the case of `Cc1cc(CNC(=O)[C@@H]2CN(C3CCCCC3)CC[C@H]2NC(=O)c2cc(-c3ccc(F)cc3F)on2)on1` (racemic) [Example 1.029, rac-(3R*,4R*)-1-Cyclohexyl-4-{[5-(2,4-difluoro-phenyl)-isoxazole-3-carbonyl]-amino}-piperidine-3-carboxylic acid (3-methyl-isoxazol-5-ylmethyl)-amide], the half-inhibitory concentration (IC50) amounted to 315 nM.

For the molecule `CC(C)(CO)NC(=O)[C@@H]1CN(C2CCCCC2)CC[C@H]1NC(=O)c1cc(-c2ccc(F)cc2F)on1` (racemic) [Example 1.088, rac-(3R*,4R*)-1-Cyclohexyl-4-{[5-(2,4-difluoro-phenyl)-isoxazole-3-carbonyl]-amino}-piperidine-3-carboxylic acid (2-hydroxy-1,1-dimethyl-ethyl)-amide], the half-maximal inhibitory concentration (IC50) was found to be 244 nM. For the molecule `C[C@@H](NC(=O)[C@@H]1CN(C2CCCCC2)CC[C@H]1NC(=O)c1cc(-c2c(F)cc(F)cc2F)on1)c1cnccn1` (single isomer, unassigned) [Example 1.129a, (3R*,4R*)-1-Cyclohexyl-4-{[5-(2,4,6-trifluoro-phenyl)-isoxazole-3-carbonyl]-amino}-piperidine-3-carboxylic acid ((R)-1-pyrazin-2-yl-ethyl)-amide], the IC50 came out at 647 nM. Molecule `C[C@@H](NC(=O)[C@@H]1CN(C2CCCC2)CC[C@H]1NC(=O)c1cc(-c2c(F)cc(F)cc2F)on1)C1CCC1` (single isomer, unassigned) [Example 1.138b, (3R*,4R*)-1-Cyclopentyl-4-{[5-(2,4,6-trifluoro-phenyl)-isoxazole-3-carbonyl]-amino}-piperidine-3-carboxylic acid ((R)-1-cyclobutyl-ethyl)-amide] displayed an IC50 of 83 nM. Turning to `C[C@@H](NC(=O)[C@H]1CN(C2CCC2)CC[C@@H]1NC(=O)c1cc(-c2ccc(F)cc2F)on1)c1ncccn1` [Example 4.084b], the IC50 was determined as 77 nM. On to `O=C(N[C@H]1CCN(C2CSC2)C[C@@H]1C(=O)NC1(c2ncccn2)CC1)c1cc(-c2ccc(F)cc2F)on1` [Example 2.102], for which 411 nM corresponded to half-maximal inhibition (IC50). `COCC(C)(C)NC(=O)[C@@H]1CN(C2CCCC2)CC[C@H]1NC(=O)c1cc(-c2ccc(F)cc2F)no1` (racemic) [Example 1.116, rac-(3R*,4R*)-1-Cyclopentyl-4-{[3-(2,4-difluoro-phenyl)-isoxazole-5-carbonyl]-amino}-piperidine-3-carboxylic acid (2-methoxy-1,1-dimethyl-ethyl)-amide] returned an IC50 of 614 nM. Then `CC(NC(=O)[C@H]1CN(C2CCCCC2)CC[C@@H]1NC(=O)c1cc(-c2ccc(F)cc2F)on1)c1ccc(F)cn1` (stereo partly shown) [Example 4.008], with 150 nM; and “(3R*,4R*)-1-Cyclohexyl-4-{[1-(2,4-difluoro-phenyl)-1H-[1,2,3]triazole-4-carbonyl]-amino}-piperidine-3-carboxylic acid ((1R*,2S*)-2-phenyl-cyclopropyl)-amide and (3R*,4R*)-1-Cyclohexyl-4-{[1-(2,4-difluoro-phenyl)-1H-[1,2,3]triazole-4-carbonyl]-amino}-piperidine-3-carboxylic acid ((1S*,2R*)-2-phenyl-cyclopropyl)-amide [Example 1.145]”, with 363 nM; and `C[C@@H](NC(=O)[C@@H]1CN(C2CCCC2)CC[C@H]1NC(=O)c1noc(-c2ccc(F)cc2F)n1)c1ccccn1` (relative stereo) [Example 1.157, (3R*,4R*)-1-Cyclopentyl-4-{[5-(2,4-difluoro-phenyl)-[1,2,4]oxadiazole-3-carbonyl]-amino}-piperidine-3-carboxylic acid ((R)-1-pyridin-2-yl-ethyl)-amide], with 131 nM. Molecule `O=C(N[C@H]1CCN(CC2CCCC2)C[C@@H]1C(=O)NC1(c2ncccn2)CC1)c1cc(-c2ccc(F)cc2F)on1` [Example 2.065] yielded an IC50 of 1 nM. Take `COCC(C)(C)NC(=O)[C@@H]1CN(C2CCCCC2)CC[C@H]1NC(=O)c1cc(-c2c(F)cc(F)cc2F)on1` (racemic) [Example 1.111, rac-(3R*,4R*)-1-Cyclohexyl-4-{[5-(2,4,6-trifluoro-phenyl)-isoxazole-3-carbonyl]-amino}-piperidine-3-carboxylic acid (2-methoxy-1,1-dimethyl-ethyl)-amide]: the IC50 was 332 nM. Turning to `CC(C)(CF)NC(=O)[C@@H]1CN(C2CCCCC2)CC[C@H]1NC(=O)c1cc(-c2ccc(F)cc2F)on1` (racemic) [Example 1.079, rac-(3R*,4R*)-1-Cyclohexyl-4-{[5-(2,4-difluoro-phenyl)-isoxazole-3-carbonyl]-amino}-piperidine-3-carboxylic acid (2-fluoro-1,1-dimethyl-ethyl)-amide], the IC50 is 510 nM. The value for “(3R*,4R*)-1-Cyclopropylmethyl-4-{[3-(2,4-difluoro-phenyl)-isoxazole-5-carbonyl]-amino}-piperidine-3-carboxylic acid ((1S*,2R*)-2-phenyl-cyclopropyl)-amide and (3R*,4R*)-1-Cyclopropylmethyl-4-{[3-(2,4-difluoro-phenyl)-isoxazole-5-carbonyl]-amino}-piperidine-3-carboxylic acid ((1R*,2S*)-2-phenyl-cyclopropyl)-amide [Example 1.164]” was 267 nM.

Molecule `C[C@@H](NC(=O)[C@@H]1CN(C2CCCC2)CC[C@H]1NC(=O)c1cc(-c2c(F)cc(F)cc2F)on1)c1cnccn1` [Example 1.13] registered a concentration for half-maximal inhibition (IC50) of 140 nM.

The molecule `CC1(NC(=O)[C@@H]2CN(C3CCCCC3)CC[C@H]2NC(=O)c2cc(-c3ccc(F)cc3F)on2)CCOC1` (relative stereo) [Example 1.084, (3R*,4R*)-1-Cyclohexyl-4-{[5-(2,4-difluoro-phenyl)-isoxazole-3-carbonyl]-amino}-piperidine-3-carboxylic acid ((3RS)-3-methyl-tetrahydro-furan-3-yl)-amide] registered an IC50 of 223 nM. The value for `C[C@H]([C@@H](C)O)N1CC[C@@H](NC(=O)c2cc(-c3ccc(F)cc3F)on2)[C@H](C(=O)N(C)CCc2ccccc2)C1` [Example 2.051] was 42 nM; that for `CC(NC(=O)[C@H]1CN(CC2CC2)CC[C@@H]1NC(=O)c1cc(-c2ccc(F)cc2F)on1)c1nc[nH]n1` (stereo partly shown) [Example 4.047] was 318 nM. As for `O=C(N[C@H]1CCN(CC2CC2)C[C@@H]1C(=O)NC1(c2cccc(F)c2)CC1)c1cc(-c2ccc(F)cc2F)on1` [Example 4.063], it took 142 nM to reach half-maximal inhibition (IC50).
